Experimental data taken from patent US8796264B2, “2-piperazin-1-yl-4H-1,3-benzothiazin-4-one derivatives and their use for the treatment of mammalian infections” (Ecole Polytechnique Federale de Lausanne (EPFL), priority 2010, dated 2014).
In brackets after ≈: the same amount, converted by molar mass.

Key:
M. tuberculosis H37Rv = assay: In vitro inhibitory activity, resazurin reduction assay (MIC99); type: cell-based, Mycobacterium tuberculosis; settings: for MIC used for the selectivity index: strain not stated
M. smegmatis = assay: as above; type: cell-based, Mycobacterium smegmatis; settings: Mycolicibacterium smegmatis, read-out: typical MIC values, M. smegmatis
[1] = test system: M. tuberculosis strain H37Rv; assay: In vivo efficacy in the acute murine TB model; set-up: species or system mice; settings: for Log of CFU lungs: 4 weeks treatment, intragastric 5 times a week; for Log of CFU lungs / Medium longevity (days) M ± SEM: compounds and BTZ043 50 mg/kg, isoniazid 25 mg/kg; for Result of treatment, macroscopic condition of the lungs: treatment for prescribed time
[2] = test system: M. tuberculosis strain H37Rv; assay: In vivo efficacy in the chronic murine TB model; set-up: species or system mice
[3] = Chemical stability in simulated gastric fluid; type: physicochemical; settings: 5 μM, after 60 minutes
in vitro = settings: human, plasma
Description: (§1) Next, PBTZ169 and BTZ043 were incubated at a concentration of 1 μg/mL with 0.1 mg of human or mouse liver microsomes (Invitrogen) in order to measure their intrinsic clearance. The relative amounts of the original compound remaining over time were determined by HPLC.

[4] = Intrinsic clearance in liver microsomes; settings: 1 μg/mL with 0.1 mg microsomes, HPLC
Description: as §1

A549 cells = assay: Cytotoxicity TC50, resazurin reduction assay; type: cell-based, human; settings: 72 h incubation
Description: (§2) The selectivity index (SI) of a compound provides a good indication of the potential tolerability of a drug candidate. […] The TC50 of PBTZ169 and BTZ043 were established using two human cell lines, the hepatocyte line HepG2 and the pneumocyte line A549, using the resazurin reduction assay after incubation with varying amounts of the compounds for 72 h. […] The respective MICs were 1 and 2 ng/ml for PBTZ169 and BTZ043. […] In clinical terms, PBTZ169 should be safer and better tolerated than BTZ043.

HepG2 cells = assay: Cytotoxicity TC50, resazurin reduction assay; type: cell-based, human; settings: 72 h incubation
Description: as §2

[5] = Acute toxicity after administration per os; settings: mouse, in vivo, mice
Description: The compounds of the invention are non-toxic after administration per os of doses ranging up to 2000 mg/kg. The compound was well tolerated by animals in the first 24 hours after introduction. […] There were no cases of animal death. LD50 for compounds (2) and (18) is >2000 mg/kg.

[6] = test system: NfnB-overproducing mutant MN39; assay: Susceptibility of the NfnB-overproducing mutant MN39; type: cell-based, Mycobacterium smegmatis; settings: M. smegmatis NfnB-overproducing mutant
From the text: A second resistance mechanism to BTZ043 has been described in Mycobacterium smegmatis due to overproduction of the nitroreductase NfnB (Manina, G., et al. Mol Microbiol 2010. epub 2010/07/14).

Structure (SMILES) | MIC (M. tuberculosis H37Rv; Mycobacterium tuberculosis, H37RV, resazurin reduction assay (MIC99), read-out: typical MIC values, M. tuberculosis H37Rv) [ng/mL] | MIC used for the selectivity index (M. tuberculosis H37Rv) [ng/mL] | MIC (M. smegmatis) [µg/mL] | Log of CFU lungs [1] | Medium longevity (days) M ± SEM [1] | Result of treatment, macroscopic condition of the lungs [1] | Reduction of the CFU load in the lungs and spleens compared to treatment with BTZ043 ([2]; 50 mg/kg by gavage once daily, six-times/week, 4 weeks) | Compound remained in simulated gastric fluid [3] [%] | half-life (in vitro) [min] | Intrinsic Clearance (Clint), Human liver microsomes [4] | Intrinsic Clearance (Clint), Mouse liver microsomes [4] | TC50 against A549 cells (A549 cells) [µg/mL] | TC50 against HepG2 cells (HepG2 cells) [µg/mL] | LD50 at 7 days [5] [mg/kg] | Efficacy in reducing CFU compared to INH ([2]; INH 25 mg/kg) | Increase in the MIC for MN39 relative to the wild type parental strain [6] [fold]
O=c1nc(N2CCN(CC3CCCCC3)CC2)sc2c([N+](=O)[O-])cc(C(F)(F)F)cc12 [Compound 2, 2-[4-(cyclohexylmethyl)piperazin-1-yl]-8-nitro-6-(trifluoromethyl)-4H-1,3-benzothiazin-4-one] | ≤ 0.19 | 1 | ≤ 0.17 | 4.30 | Alive at sacrifice | marked improvement | significantly more efficacious | 67 | > 60 | 23.9 μL/min/mg of protein | 20.9 μL/min/mg of protein | 73.2 (≈ 160 µM) | 66.7 (≈ 146 µM) | > 2000 | – | –
C[C@H]1COC2(CCN(c3nc(=O)c4cc(C(F)(F)F)cc([N+](=O)[O-])c4s3)CC2)O1 [BTZ043, 2-[(2S)-2-methyl-1,4-dioxa-8-azaspiro[4.5]dec-8-yl]-8-nitro-6-(trifluoromethyl)-4H-1,3-benzothia-zin-4-one, reference compound] | – | 2 | – | 4.78 | Alive at sacrifice | marked improvement | – | – | – | 16.2 μL/min/mg of protein | 10.3 μL/min/mg of protein | 16.3 (≈ 37.8 µM) | 6.3 (≈ 14.6 µM) | – | slightly inferior to INH | 6
